pKi: −log10 of the molar value.
Experiments:
human cathepsin K = target: T1, human cathepsin K (Homo sapiens, UniProt P43235); assay: Recombinant enzyme assay, human cathepsin K; assay type: biochemical
T1 construct: made in house; host or cells: E. coli
T1 sequence (P43235 115-329): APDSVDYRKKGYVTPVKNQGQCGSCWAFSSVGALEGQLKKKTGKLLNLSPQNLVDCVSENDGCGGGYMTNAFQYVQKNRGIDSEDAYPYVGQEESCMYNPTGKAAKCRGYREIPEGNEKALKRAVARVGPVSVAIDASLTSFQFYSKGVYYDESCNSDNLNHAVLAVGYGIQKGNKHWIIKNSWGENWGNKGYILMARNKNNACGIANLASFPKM
Text: Recombinant cathepsin K enzymes from all species were expressed in E. coli, purified and activated. Human cathepsin F and cathepsin S were expressed in Baculovirus, purified and activated. Purified human cathepsins B and H (Athens Research Technology), cathepsin L (Calbiochem), and cathepsin V (R & D Systems) were purchased.
H-D-Ala_Leu-Lys-AMC was used as the substrate in assays of cathepsin K from non-rodent species (human, dog, rabbit and guinea pig), and Z-Leu-Arg-AMC was used as the substrate in assays of cathepsin K from rodent species (mouse and rat). […]
Assays were carried out in white polystyrene 96-well plates in a final volume of 100 µL. […] Plates were read in a Fluoroskan Ascent (Thermo Labsystems, Helsinki, Finland) in kinetic mode, with excitation and emission filters of 390 and 460 nm, respectively. Rates were determined by linear regression of the fluorescence/time data in Excel. Rates were fitted by non-linear regression to either the competitive inhibition equation, with the substrate concentration fixed at the value in the assay and the KM fixed to the value previously determined, or the IC50 equation using GraphPad Prism (GraphPad, version 6, San Diego, USA) to obtain Ki or IC50 values, respectively.

[1] = Human plasma pharmacokinetics, single ascending dose study; assay type: in vivo, human healthy subjects; conditions: for AUC0–t / AUCinf / Cmax / Cmax/dose / t½: geometric mean (CV%); for tmax: median (min–max)
Text: Twenty-seven healthy male and female subjects (18 male and 9 female) of any ethnic origin (24 White, 1 Asian, 1 Black, 1 Black/Caribbean White), aged between 19 and 64 years, and with a body mass index (BMI) between 18.0 and 32.0 kg/m^2, were selected for this study. Inclusion criteria for enrollment followed the standard practice for first-in-man studies.
This was a randomized, double-blind, placebo-controlled, sequential, single-ascending dose study conducted at a single site with the objective of evaluating the safety, tolerability, pharmacokinetics (PK) and pharmacodynamics of MIV-711. Subjects were randomized into 3 groups using a computer-generated pseudo-random permutation procedure. Each group consisted of 9 subjects with at least 3 subjects of each gender per group and subjects participated in 1–2 treatment periods. There was a minimum of 10 days between dose escalations and a minimum of 20 days between dosing occasions for individual subjects. For each subsequent dosing occasion, the decision to escalate the dose to the next level was taken after a thorough review of the safety, tolerability and PK data. In each treatment period, 7 subjects received MIV-711 and 2 received placebo (comprising of 1 subject of each gender). Dosing occurred on the morning of Day 1 following an overnight fast and subjects were kept in the fasted state until approximately 4.5 h after dosing. MIV-711 was given as a combination of 10 or 40 mg hard gelatin capsules, while placebo was given in similar capsules of identical appearance.
Blood samples were collected at pre-dose, 0.5, 1, 1.5, 2, 3, 4, 6, 8, 12, 16, 24, 36 and 48 h post-dose and processed into plasma for the measurement of concentrations of MIV-711. The PK analysis was conducted using WinNonlin Enterprise Version 5.2 (Pharsight Corporation, Mountain View, CA, USA).
The quantification of MIV-711 in monkey plasma was performed by taking 10–50 µL of plasma and mixing with 3 volumes of acetonitrile (10 s, Vibrofix). The sample was centrifuged (10 min, 20,000×g, 7 °C) and 5 µL of the supernatant was injected onto the liquid chromatography with tandem mass spectrometric detection (LC–MS/MS) system. The lowest concentration of the standard curves and the lower limit of quantification (LLOQ) was 1 nmol/L of MIV-711. The human plasma samples were prepared by protein precipitation for sample extraction followed by LC–MS/MS. The lowest concentration of the standard curves and the LLOQ was 4 nmol/L of MIV-711 using 25 µL of plasma.

With `C#C[C@@H]1CN(C(=O)[C@H](CC(C)C)NC(=O)c2ccc(-c3nc(N4CCN(C)CC4)sc3F)cc2)[C@@H]2C(=O)CO[C@H]12` [MIV-711] the “Selectivity versus the other human cathepsins tested” value (human cathepsin K; cathepsin K vs cathepsins B, L, F, V, H, S) was “more than 1300 fold”, the pKi (human cathepsin K; human recombinant cathepsin K, geometric mean) was 9.01 and the “AUC0–t” value ([1]; 20 mg single oral dose) was 0.128 (36) µmol/L × h. For the same compound, the AUCinf ([1]; 20 mg single oral dose) was 0.158 (32) µmol/L × h, the Cmax ([1]; 20 mg single oral dose) was 0.033 µM and the Cmax/dose ([1]; 20 mg single oral dose) was 0.12 (26). For the same compound, the t½ ([1]; 20 mg single oral dose) was 3.4 (13) h, the tmax ([1]; 20 mg single oral dose) was 1.0 (0.50–2.0) h and the “AUC0–24h” value ([1]; 100 mg) was 1100 nM·h. The “AUC0–t” value ([1]; 100 mg single oral dose) was 1.13 (38) µmol/L × h, the AUCinf ([1]; 100 mg single oral dose) was 1.17 (37) µmol/L × h and the Cmax ([1]; 100 mg single oral dose) was 0.293 µM. For the same compound, the Cmax/dose ([1]; 100 mg single oral dose) was 0.21 (23), the t½ ([1]; 100 mg single oral dose) was 3.7 (15) h and the tmax ([1]; 100 mg single oral dose) was 1.0 (1.0–2.2) h. The “Plasma levels at 24 h post-dose” value ([1]; 100 mg, mostly below LLOQ) was less than 0.004 µM, the “AUC0–t” value ([1]; 200 mg single oral dose) was 2.45 (36) µmol/L × h and the AUCinf ([1]; 200 mg single oral dose) was 2.51 (35) µmol/L × h. For the same compound, the Cmax ([1]; 200 mg single oral dose) was 0.756 µM, the Cmax/dose ([1]; 200 mg single oral dose) was 0.27 (36) and the t½ ([1]; 200 mg single oral dose) was 5.0 (16) h. For the same compound, the tmax ([1]; 200 mg single oral dose) was 1.0 (0.50–1.0) h, the “AUC0–t” value ([1]; 400 mg single oral dose) was 4.62 (33) µmol/L × h and the AUCinf ([1]; 400 mg single oral dose) was 4.75 (32) µmol/L × h. For the same compound, the Cmax ([1]; 400 mg single oral dose) was 1.18 µM, the Cmax/dose ([1]; 400 mg single oral dose) was 0.23 (37) and the t½ ([1]; 400 mg single oral dose) was 6.5 (44) h. The tmax ([1]; 400 mg single oral dose) was 1.0 (1.0–1.5) h, the “AUC0–t” value ([1]; 600 mg single oral dose) was 6.75 (30) µmol/L × h and the AUCinf ([1]; 600 mg single oral dose) was 6.89 (30) µmol/L × h. The Cmax ([1]; 600 mg single oral dose) was 1.39 µM, the Cmax/dose ([1]; 600 mg single oral dose) was 0.17 (38) and the t½ ([1]; 600 mg single oral dose) was 8.3 (34) h. The tmax ([1]; 600 mg single oral dose) was 1.0 (1.0–3.0) h, the Excreted renally unchanged ([1]; data not shown) was “less than 1%” and the “mean terminal t1/2” value ([1]; over the 20–600 mg dose range) was 3.4 to 8.3 h. The median tmax ([1]; single oral doses) was 1 h.

From publication PMC5944028, “Nonclinical and clinical pharmacological characterization of the potent and selective cathepsin K inhibitor MIV-711” (Journal of Translational Medicine, 2018)
